Tests used:
healthy subjects [1] = test: NEO-Five Factor Inventory (NEO-FFI); format: in vivo, human
Procedure: In some embodiments, the NEO-Five Factor Inventory (NEO-FFI) test is used to evaluate the safety and/or efficacy of psilocybin. The NEO-FFI evaluates 5 broad domains of personality—Neuroticism, Extroversion, Openness, Agreeableness and Conscientiousness.
The Neuroticism Extraversion Openness-Five Factor Inventory (NEO-FFI) and Symptom Checklist-90 Item (SCL-90) were administered. Details of the MMRM applied to the change from baseline scores for the NEO-FFI and SCL-90 are provided below in Table 28.

healthy subjects [2] = test: Toronto Empathy Questionnaire (TEQ); format: in vivo, human
From the text: In some embodiments, the Toronto Empathy Questionnaire (TEQ) is utilized to evaluate the safety and/or efficacy of psilocybin. The TEQ represents empathy as a primarily emotional process. […] The TEQ is a brief, reliable and valid instrument for the assessment of empathy. In some embodiments, after treating according to the methods of the disclosure, a subject's TEQ score increases by about 5%, about 10%, about 15%, about 20%, about 25%, about 30%, about 35%, about 40%, about 45%, about 50%, about 55%, about 60%, about 65%, about 70%, about 75%, about 80%, about 85%, about 90%, about 95%, or about 100%, about 110%, about 120%, about 130%, about 140%, about 150%, about 160%, about 170%, about 180%, about 190%, about 200%, about 210%, about 220%, about 230%, about 240%, about 250%, about 260%, about 270%, about 280%, about 290%, or about 300%, or more, compared to prior to treatment.
The following list of outcome measures are non-exhaustive. • a. The short-term change from Baseline (Day −1 [Visit 2]) to Day 7 (Visit 5) in cognitive measures of attention, spatial and working memory and executive function was measured by a composite score of the CANTAB Panel (Spatial Working Memory [SWM], Rapid Visual Information Processing [RVP], Paired Associates Learning [PAL]). • b. The short-term change from Baseline (Day −1 [Visit 2]) to Day 7 (Visit 5) in Social Cognition Panel scales (Pictorial Empathy Test [PET], Reading the Mind in the Eyes Test [RMET], Toronto Empathy Questionnaire [TEQ], Social Value Orientation [SVO], Scale of Social Responsibility [SSR]). • c. The change from Baseline (Day −1 [Visit 2]) to Day 28 (Visit 6) in cognitive measures of attention, spatial and working memory and executive function as measured by a composite score of the CANTAB Panel (SWM, RVP, PAL). • d. The long-term change from Baseline (Day −1 [Visit 2]) to Day 84 (Visit 7) in Social Cognition Panel scales (PET, RMET, TEQ, SVO, SSR). • e. Dose-related differences between cognitive effects of psilocybin at Baseline (Day −1 [Visit 2]), Day 7 (Visit 5) and Day 28 (Visit 6), as measured by a composite score of the CANTAB Panel (SWM, RVP, PAL). • f. Dose-related differences between psychological effects of psilocybin at Baseline (Day −1 [Visit 2]), Day 7 (Visit 5) and Day 84 (Visit 7), as measured by Social Cognition Panel scales (PET, RMET, TEQ, SVO, SSR). • g. Differences in cognitive effects of psilocybin between psilocybin-naïve and experienced subjects at Baseline (Day −1 [Visit 2]), Day 7 (Visit 5) and Day 28 (Visit 6), as measured by a composite score of the CANTAB Panel (SWM, RVP, PAL). • h. Differences in Positive and Negative Affect Schedule (PANAS) after study drug administration on Day 0 (Visit 3). • i. Differences between psilocybin and placebo in the Emotion Recognition Test (ERT), Intra-Extra Dimensional Set Shift (IED), One Touch Stockings (OTS), Verbal Fluency and Digit Span Forward at Day 7 (Visit 5). • j. A composite score of the CANTAB Panel, including the following tests: • i. Spatial Working Memory (SWM) (performed at Visit 2, Visit 5, and Visit 6). • ii. Rapid Visual Information Processing (RVP) (performed at Visit 2, Visit 5, and Visit 6). • iii. Paired Associates Learning (PAL) (performed at Visit 2, Visit 5, and Visit 6). • k. Cognitive Flexibility Panel • i. Emotion Recognition Task (ERT) (performed at Visit 5). • ii. Intra-Extra Dimensional Set Shift (IED) (performed at Visit 5). • iii. One Touch Stockings (OTS) (performed at Visit 5). • iv. Verbal Fluency (performed at Visit 5). • v. Digit Span Forward (performed at Visit 5). • l. Five Dimension Altered States of Consciousness questionnaire (5D-ASC) (performed at Visit 3). • m. PANAS (performed at Visit 2 and Visit 3). • n. NEO-Five Factor Inventory (NEO-FFI) (performed at Visit 2, Visit 5, and Visit 7). • o. Symptom Checklist-90 item (SCL-90) (performed at Visit 2, Visit 5, and Visit 7). • p. […]

In the case of `CN(C)CCc1c[nH]c2cccc(OP(=O)(O)O)c12` [psilocybin], the “NEO agreeableness change from baseline, difference Psilocybin 10 mg - Placebo” value (healthy subjects [1]; Day 7) is reported as −0.4, the “NEO agreeableness change from baseline, difference Psilocybin 25 mg - Placebo” value (healthy subjects [1]; Day 7) is reported as −0.1 and the “NEO agreeableness change from baseline, difference Psilocybin (25 mg-10 mg)” value (healthy subjects [1]; Day 7) is reported as 0.4. For the same compound, the “NEO conscientiousness change from baseline, difference Psilocybin 10 mg - Placebo” value (healthy subjects [1]; Day 7) was 0.4, the “NEO conscientiousness change from baseline, difference Psilocybin 25 mg - Placebo” value (healthy subjects [1]; Day 7) was 0.7 and the “NEO conscientiousness change from baseline, difference Psilocybin (25 mg-10 mg)” value (healthy subjects [1]; Day 7) was 0.3. The “NEO extraversion change from baseline, difference Psilocybin 10 mg - Placebo” value (healthy subjects [1]; Day 7) was 0.4, the “NEO extraversion change from baseline, difference Psilocybin 25 mg - Placebo” value (healthy subjects [1]; Day 7) was 0.5 and the “NEO extraversion change from baseline, difference Psilocybin (25 mg-10 mg)” value (healthy subjects [1]; Day 7) was 0.1. For the same compound, the “NEO neuroticism change from baseline, difference Psilocybin 10 mg - Placebo” value (healthy subjects [1]; Day 7) was −0.2, the “NEO neuroticism change from baseline, difference Psilocybin 25 mg - Placebo” value (healthy subjects [1]; Day 7) was 0.2 and the “NEO neuroticism change from baseline, difference Psilocybin (25 mg-10 mg)” value (healthy subjects [1]; Day 7) was −0.0. For the same compound, the “NEO openness change from baseline, difference Psilocybin 10 mg - Placebo” value (healthy subjects [1]; Day 7) was 1.1, the “NEO openness change from baseline, difference Psilocybin 25 mg - Placebo” value (healthy subjects [1]; Day 7) was 1.2 and the “NEO openness change from baseline, difference Psilocybin (25 mg-10 mg)” value (healthy subjects [1]; Day 7) was 0.1. For the same compound, the “NEO agreeableness change from baseline, difference Psilocybin 10 mg - Placebo” value (healthy subjects [1]; Day 84) was −0.8, the “NEO agreeableness change from baseline, difference Psilocybin 25 mg - Placebo” value (healthy subjects [1]; Day 84) was −0.7 and the “NEO agreeableness change from baseline, difference Psilocybin (25 mg-10 mg)” value (healthy subjects [1]; Day 84) was 0.1. For the same compound, the “NEO conscientiousness change from baseline, difference Psilocybin 10 mg - Placebo” value (healthy subjects [1]; Day 84) was 0.2, the “NEO conscientiousness change from baseline, difference Psilocybin 25 mg - Placebo” value (healthy subjects [1]; Day 84) was 1.4 and the “NEO conscientiousness change from baseline, difference Psilocybin (25 mg-10 mg)” value (healthy subjects [1]; Day 84) was 1.2. For the same compound, the “NEO extraversion change from baseline, difference Psilocybin 10 mg - Placebo” value (healthy subjects [1]; Day 84) was −0.7, the “NEO extraversion change from baseline, difference Psilocybin 25 mg - Placebo” value (healthy subjects [1]; Day 84) was −0.5 and the “NEO extraversion change from baseline, difference Psilocybin (25 mg-10 mg)” value (healthy subjects [1]; Day 84) was 0.2. The “NEO neuroticism change from baseline, difference Psilocybin 10 mg - Placebo” value (healthy subjects [1]; Day 84) was 0.3, the “NEO neuroticism change from baseline, difference Psilocybin 25 mg - Placebo” value (healthy subjects [1]; Day 84) was −1.0 and the “NEO neuroticism change from baseline, difference Psilocybin (25 mg-10 mg)” value (healthy subjects [1]; Day 84) was −1.3. For the same compound, the “NEO openness change from baseline, difference Psilocybin 10 mg - Placebo” value (healthy subjects [1]; Day 84) was 1.1, the “NEO openness change from baseline, difference Psilocybin 25 mg - Placebo” value (healthy subjects [1]; Day 84) was 0.4 and the “NEO openness change from baseline, difference Psilocybin (25 mg-10 mg)” value (healthy subjects [1]; Day 84) was −0.7. The “TEQ change from baseline, LS mean difference Psilocybin 10 mg - Placebo” value (healthy subjects [2]; Day 7, MMRM) was 0.1, the “TEQ change from baseline, LS mean difference Psilocybin 25 mg - Placebo” value (healthy subjects [2]; Day 7, MMRM) was 0.2 and the “TEQ change from baseline, LS mean difference Psilocybin 25 mg-10 mg” value (healthy subjects [2]; Day 7, MMRM) was 0.1. For the same compound, the “TEQ change from baseline, LS mean difference Psilocybin 10 mg - Placebo” value (healthy subjects [2]; Day 84, MMRM) was 0.1, the “TEQ change from baseline, LS mean difference Psilocybin 25 mg - Placebo” value (healthy subjects [2]; Day 84, MMRM) was 0.1 and the “TEQ change from baseline, LS mean difference Psilocybin 25 mg-10 mg” value (healthy subjects [2]; Day 84, MMRM) was 0.0. For the same compound, the “TEQ change from baseline, LS mean” value (healthy subjects [2]; Psilocybin 10 mg, Day 84, MMRM) was −0.1 and the “TEQ change from baseline, LS mean” value (healthy subjects [2]; Psilocybin 25 mg, Day 84, MMRM) was −0.0.

From US11865126B2, “Method for treating anxiety disorders, headache disorders, and eating disorders with psilocybin” (priority 2019, dated 2024)
